Activity calls are given as the source filed them. No cut-off for these calls is given here.
Key:
[1] = system: Vero; test: Cytotoxicity against african green monkey Vero cells assessed as cell viability after 48 hrs by MTT assay; assay type: cell-based; details: Chlorocebus sabaeus
[2] = system: HeLa; test: Induction of apoptosis in human HeLa cells assessed as formation of apoptotic bodies at 8 uM after 12 hrs using Hoechst 33342 staining by fluorescence microscopic analysis; assay type: functional, cell-based
[3] = system: HeLa; test: Induction of apoptosis in human HeLa cells assessed as DNA fragmentation at 16 uM after 48 hrs by agarose gel electrophoresis; assay type: functional, cell-based
[4] = system: HeLa; test: Induction of apoptosis in human HeLa cells assessed as increase in sub-G1 DNA content at 24 uM after 12 hrs using Propidium iodide staining by flow cytometry; assay type: functional, cell-based
[5] = system: HeLa; test: Cytotoxicity against human HeLa cells assessed as cell viability after 48 hrs by MTT assay; assay type: functional, cell-based
[6] = target: T1, Caspase-3 (Homo sapiens) (UniProt P42574); test: Induction of caspase 3 activation in human HeLa cells using Ac-DEVD-pNA at 4 uM after 4 hrs by Bradford assay; assay type: cell-based
T1 sequence (whole entry): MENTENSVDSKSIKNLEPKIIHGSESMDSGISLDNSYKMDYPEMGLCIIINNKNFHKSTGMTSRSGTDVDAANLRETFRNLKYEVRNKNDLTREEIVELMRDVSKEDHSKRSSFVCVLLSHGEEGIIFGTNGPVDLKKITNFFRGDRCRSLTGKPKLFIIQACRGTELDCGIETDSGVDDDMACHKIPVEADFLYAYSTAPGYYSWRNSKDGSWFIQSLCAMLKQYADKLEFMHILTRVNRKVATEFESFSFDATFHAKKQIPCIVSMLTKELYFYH

[7] = target: T1, Caspase-3 (Homo sapiens); test: Induction of caspase 3 activation in human HeLa cells using Ac-DEVD-pNA at 8 uM after 4 hrs by Bradford assay; assay type: cell-based
[8] = system: Vero; test: Selectivity index, ratio of IC50 for african green monkey Vero cells to IC50 for human MCF7 cells after 48 hrs
[9] = system: HeLa; test: Induction of apoptosis in human HeLa cells assessed as phosphatidylserine externalization at 2 to 16 uM using annexin/PI staining by fluorescence microscopy; assay type: functional, cell-based; details: TDE = time-dependent effect
[10] = system: HeLa; test: Induction of apoptosis in human HeLa cells assessed as DNA fragmentation at 16 to 32 uM after 24 hrs by agarose gel electrophoresis; assay type: functional, cell-based
[11] = target: T1, Caspase-3 (Homo sapiens); test: Induction of caspase 3 activation in human HeLa cells using Ac-DEVD-pNA after 4 hrs by Bradford assay; assay type: cell-based
[12] = system: HeLa; test: Induction of apoptosis in human HeLa cells assessed as necrotic cells after 0.5 to 4 hrs using annexin/PI staining by fluorescence microscopy; assay type: functional, cell-based
[13] = system: HeLa; test: Induction of apoptosis in human HeLa cells assessed as phosphatidylserine externalization after 0.5 to 4 hrs using annexin/PI staining by fluorescence microscopy; assay type: functional, cell-based
[14] = system: A549; test: Cytotoxicity against human A549 cells assessed as cell viability after 72 hrs by MTT assay; assay type: functional, cell-based; details: A549, 72 h
[15] = system: HeLa; test: Induction of apoptosis in human HeLa cells assessed as necrotic cells at 2 to 16 uM using annexin/PI staining by fluorescence microscopy; assay type: functional, cell-based; details: TDE = time-dependent effect
[16] = system: HeLa; test: Induction of apoptosis in human HeLa cells assessed as chromatin condensation at 8 uM after 12 hrs using Hoechst 33342 staining by fluorescence microscopic analysis; assay type: functional, cell-based
[17] = system: HeLa; test: Induction of apoptosis in human HeLa cells assessed as DNA fragmentation at 4 to 32 uM after 12 hrs by agarose gel electrophoresis; assay type: functional, cell-based
[18] = system: A549; test: Cytotoxicity against human A549 cells assessed as cell viability after 48 hrs by MTT assay; assay type: functional, cell-based; details: A549, 48 h
[19] = system: Vero; test: Cytotoxicity against african green monkey Vero cells assessed as cell viability after 72 hrs by MTT assay; assay type: cell-based; details: Chlorocebus sabaeus
[20] = system: HeLa; test: Induction of apoptosis in human HeLa cells assessed as early apoptotic cells at 2 to 4 uM up to 4 hrs using annexin/PI staining by fluorescence microscopy; assay type: functional, cell-based
[21] = system: MCF7; test: Cytotoxicity against human MCF7 cells assessed as cell viability after 48 hrs by MTT assay; assay type: functional, cell-based; details: MCF7, 48 h
[22] = system: MCF7; test: Cytotoxicity against human MCF7 cells assessed as cell viability after 72 hrs by MTT assay; assay type: functional, cell-based; details: MCF7, 72 h
[23] = system: HeLa; test: Cytotoxicity against human HeLa cells assessed as cell viability after 72 hrs by MTT assay; assay type: functional, cell-based
[24] = system: HeLa; test: Induction of apoptosis in human HeLa cells assessed as DNA fragmentation at 2 uM after 48 hrs by agarose gel electrophoresis; assay type: functional, cell-based
[25] = target: T1, Caspase-3 (Homo sapiens); test: Induction of caspase 3 activation in human HeLa cells using Ac-DEVD-pNA at 2 uM after 4 hrs by Bradford assay; assay type: cell-based
[26] = system: HeLa; test: Induction of apoptosis in human HeLa cells assessed as necrotic cells at 8 uM after 1 to 2 hrs using annexin/PI staining by fluorescence microscopy; assay type: functional, cell-based
[27] = target: T1, Caspase-3 (Homo sapiens); test: Increase in caspase 3 activation in human HeLa cells using Ac-DEVD-pNA at 32 uM after 4 hrs by Bradford assay relative to control; assay type: cell-based
[28] = target: T1, Caspase-3 (Homo sapiens); test: Increase in caspase 3 activation in human HeLa cells using Ac-DEVD-pNA at 12 uM after 4 hrs by Bradford assay relative to control; assay type: cell-based
[29] = system: HeLa; test: Induction of apoptosis in human HeLa cells at 8 uM after 2 to 4 hrs using annexin/PI staining by fluorescence microscopy; assay type: functional, cell-based
[30] = target: T1, Caspase-3 (Homo sapiens); test: Induction of caspase 3 activation in human HeLa cells using Ac-DEVD-pNA at 24 uM after 8 hrs by Bradford assay; assay type: cell-based
[31] = system: HeLa; test: Induction of apoptosis in human HeLa cells at 12 uM after 2 to 4 hrs using annexin/PI staining by fluorescence microscopy; assay type: functional, cell-based
[32] = system: HeLa; test: Induction of apoptosis in human HeLa cells at 16 uM after 2 to 4 hrs using annexin/PI staining by fluorescence microscopy; assay type: functional, cell-based

| SMILES | IC50 [1] [nM] | Activity [2] | Activity [3] | Activity [4] | IC50 [5] [nM] | Activity [6] | Activity [7] | Ratio IC50 [8] | Activity [9] | Activity [10] | Activity [11] | Activity [12] | Activity [13] | IC50 [14] [nM] | Activity [15] | Activity [16] | Activity [17] | IC50 [18] [nM] | IC50 [19] [nM] | IC50 [21] [nM] | also measured |
| --- | --- | --- | --- | --- | --- | --- | --- | --- | --- | --- | --- | --- | --- | --- | --- | --- | --- | --- | --- | --- | --- |
| CC1=C(C)C(=O)O[C@@H]([C@@H](C)[C@H]2CC[C@H]3[C@@H]4C[C@H]5O[C@]56[C@@H](O)C=CC(=O)[C@]6(C)[C@H]4CC[C@]23C)C1 | 1500 | Active | inactive | Active | 4600 | inactive | inactive | <1 | tde | inactive | Dose-dependent effect | Dose-dependent effect | Dose-dependent effect | 1500 | tde | Active | inactive | 9000 | 2200 | 6600 | Activity [20]: Active; IC50 [22]: 1100 nM; IC50 [23]: 3400 nM |
| CN[C@@H]1C[C@H]2O[C@@](C)([C@@H]1OC)n1c3ccccc3c3c4c(c5c6ccccc6n2c5c31)C(=O)NC4 | – | – | – | – | – | – | – | – | – | – | – | – | – | – | – | – | – | – | – | – | Activity [24]: Active; Activity [25]: Active |
| CC1=C(CO[Si](C)(C)C(C)(C)C)C(=O)O[C@@H]([C@@H](C)[C@H]2CC[C@H]3[C@@H]4C[C@H]5O[C@]56[C@@H](O)C=CC(=O)[C@]6(C)[C@H]4CC[C@]23C)C1 | 700 | Active | inactive | Active | 900 | inactive | inactive | 1 | tde | inactive | Dose-dependent effect | Dose-dependent effect | Dose-dependent effect | 1500 | tde | Active | inactive | 1500 | 900 | 700 | Activity [26]: inactive; Activity [27]: inactive; IC50 [22]: 700 nM; IC50 [23]: 1000 nM |
| CC1=C(CO)C(=O)O[C@@H]([C@@H](C)C2=CC[C@H]3[C@@H]4C[C@H]5O[C@]56[C@@H](O)C=CC(=O)[C@]6(C)[C@H]4CC[C@]23C)C1 [WITHARISTATIN] | 3400 | Active | inactive | Active | 3500 | inactive | inactive | 2.8 | tde | inactive | Dose-dependent effect | Dose-dependent effect | Dose-dependent effect | 2300 | tde | Active | inactive | 4200 | 2600 | 1200 | fold change (FC) [28]: 1; Activity [20]: Active; IC50 [22]: 300 nM; IC50 [23]: 2700 nM |
| CC1=C(CO[Si](C)(C)C(C)(C)C)C(=O)O[C@@H]([C@@H](C)[C@H]2CC[C@H]3[C@@H]4C[C@H]5O[C@]56C(=O)C=CC(=O)[C@]6(C)[C@H]4CC[C@]23C)C1 | 3100 | Active | inactive | Active | 1700 | inactive | inactive | 6.2 | tde | inactive | Dose-dependent effect | Dose-dependent effect | Dose-dependent effect | 2900 | tde | Active | inactive | 5300 | 4000 | 500 | Activity [29]: Active; Activity [30]: Active; Activity [31]: Active; Activity [32]: Active; IC50 [22]: 200 nM; IC50 [23]: 2100 nM |
| CC1=C(CO)C(=O)O[C@@H]([C@@H](C)[C@H]2CC[C@H]3[C@@H]4C[C@H]5O[C@]56[C@@H](O)C=CC(=O)[C@]6(C)[C@H]4CC[C@]23C)C1 [WITHAFERIN A] | 1300 | Active | inactive | Active | 3000 | inactive | inactive | <1 | tde | inactive | Dose-dependent effect | Dose-dependent effect | Dose-dependent effect | 1500 | tde | Active | inactive | 6600 | 1700 | 3600 | Activity [30]: Active; Activity [20]: Active; IC50 [22]: 600 nM; IC50 [23]: 2300 nM |

Reference: ChEMBL document CHEMBL2046268 (Eur J Med Chem, 2012)
